Assay results reported in article PMC9220351, “Evaluation of a Conformationally Constrained Indole Carboxamide as a Potential Efflux Pump Inhibitor in Pseudomonas aeruginosa” (Antibiotics, 2022).

Legend:
[1] = test system: 34 MDR P. aeruginosa clinical isolates (CDC & FDA AR Isolate Bank); assay: microbe, parasite or virus in culture; format: cell-based, Pseudomonas aeruginosa; details: for Levofloxacin MIC fold difference: + labelled EPI […] (TXA09155 head: 50 µg/mL); for Levofloxacin MIC: alone or + labelled EPI […] (TXA09155 head: 50 µg/mL)
Text: P. aeruginosa ATCC 27853 was obtained from the American Type Culture Collection (ATCC; Manassas, VA, USA). P. aeruginosa multidrug-resistant isolates were obtained from the CDC and FDA Antibiotic Resistance Isolate Bank (Atlanta, GA, USA). P. aeruginosa DA7232 (gyrA-T83I, parC-S80L) was a kind gift from Prof. Dan I. Andersson, Uppsala University, Uppsala, Sweden, and has been characterized elsewhere. P. aeruginosa strains K767 (WT), K1455 (mexAB-oprM overexpressed), K2415 (mexXY-oprM overexpressed), and K3698 (oprM∆) were obtained from Prof. Keith Poole, Queen’s University, Kingston, Ontario, Canada and have been characterized elsewhere. Bacterial cells were grown in cation-adjusted Mueller Hinton (CAMH) media, brain heart infusion broth (BHI), or tryptic soy agar (TSA) plates were all obtained from Becton, Dickinson, and Company (BD; Franklin Lakes, NJ, USA). […] Azithromycin was purchased from Tokyo Chemical Industry (Portland, OR, USA). […] Ethidium bromide (EtBr) and glucose were purchased from VWR (Radnor, PA, USA). MC-04,124 and TXA01182 were synthesized at TAXIS Pharmaceuticals. Carbonyl cyanide 3-chlorophenylhydrazone (CCCP) was purchased from Enzo Life Sciences (Farmingdale, NY, USA). DiOC2 (3) and propidium iodide were obtained from Thermo Fisher Scientific (Waltham, MA, USA).
(§1) MIC assays were performed as described previously.

P. aeruginosa ATCC 27853 [2] = assay: MIC / antibiotic potentiation assay, wild-type strain
[3] = test system: P. aeruginosa DA7232 (gyrA-T83I, parC-S80L); assay: MIC / levofloxacin potentiation, fluoroquinolone-resistant strain; format: cell-based, Pseudomonas aeruginosa; details: strain DA7232
Text: P. aeruginosa ATCC 27853 was obtained from the American Type Culture Collection (ATCC; Manassas, VA, USA). P. aeruginosa multidrug-resistant isolates were obtained from the CDC and FDA Antibiotic Resistance Isolate Bank (Atlanta, GA, USA). P. aeruginosa DA7232 (gyrA-T83I, parC-S80L) was a kind gift from Prof. Dan I. Andersson, Uppsala University, Uppsala, Sweden, and has been characterized elsewhere. P. aeruginosa strains K767 (WT), K1455 (mexAB-oprM overexpressed), K2415 (mexXY-oprM overexpressed), and K3698 (oprM∆) were obtained from Prof. Keith Poole, Queen’s University, Kingston, Ontario, Canada and have been characterized elsewhere. Bacterial cells were grown in cation-adjusted Mueller Hinton (CAMH) media, brain heart infusion broth (BHI), or tryptic soy agar (TSA) plates were all obtained from Becton, Dickinson, and Company (BD; Franklin Lakes, NJ, USA). Aztreonam, ceftazidime, moxifloxacin, levofloxacin, minocycline, tigecycline, chloramphenicol, nitrocefin, and imipenem were purchased from TOKU-E (Bellingham, WA, USA). Azithromycin was purchased from Tokyo Chemical Industry (Portland, OR, USA). Cotrimoxazole was purchased from Toronto Research Chemicals (Toronto, ON, Canada). Doxycycline and polymyxin B were purchased from Sigma-Aldrich (St. Louis, MO, USA). Ethidium bromide (EtBr) and glucose were purchased from VWR (Radnor, PA, USA). MC-04,124 and TXA01182 were synthesized at TAXIS Pharmaceuticals. Carbonyl cyanide 3-chlorophenylhydrazone (CCCP) was purchased from Enzo Life Sciences (Farmingdale, NY, USA). DiOC2 (3) and propidium iodide were obtained from Thermo Fisher Scientific (Waltham, MA, USA).
as §1

P. aeruginosa ATCC 27853 [4] = format: cell-based, Pseudomonas aeruginosa
Protocol: All resistant colonies were verified by determining the MIC to TXA09155. […] This two-component system regulates the expression of more than 100 genes in P. aeruginosa, including genes that code for efflux components (mexX), and plays a role in the resistance to cationic antimicrobial peptides and aminoglycoside antibiotics.
The frequency of resistance studies was carried out as described previously.

Cl.NC[C@@H]1CN[C@H](CNC(=O)c2cc3ccc(-c4ccc(F)cc4)cc3[nH]2)C1 [TXA09155, N-(((2S,4R)-4-(aminomethyl)pyrrolidine-2-yl)methyl)-6-(4-fluorophenyl)-1H-indole-2-carboxamide hydrochloride salt]
levofloxacin MIC50 in presence of EPI ([1]; EPI (label) fixed […], 34 MDR isolates, levofloxacin alone 32): 2 µg/mL
levofloxacin MIC90 in presence of EPI ([1]; EPI (label) fixed […], 34 MDR isolates, levofloxacin alone 64): 8 µg/mL
Levofloxacin MIC fold difference ([1]; strain AR-0229): 32
Levofloxacin MIC ([1]; strain AR-0229): 2 µg/mL
Levofloxacin MIC fold difference ([1]; strain AR-0230): 8
Levofloxacin MIC ([1]; strain AR-0230): 8 µg/mL
Levofloxacin MIC fold difference ([1]; strain AR-0231): 4
Levofloxacin MIC ([1]; strain AR-0231): 16 µg/mL
Levofloxacin MIC fold difference ([1]; strain AR-0232): 16
Levofloxacin MIC ([1]; strain AR-0232): 0.5 µg/mL
Levofloxacin MIC fold difference ([1]; strain AR-0233): 32
Levofloxacin MIC ([1]; strain AR-0233): 0.125 µg/mL
Levofloxacin MIC fold difference ([1]; strain AR-0234): 16
Levofloxacin MIC ([1]; strain AR-0234): 0.5 µg/mL
Levofloxacin MIC fold difference ([1]; strain AR-0236): 8
Levofloxacin MIC ([1]; strain AR-0236): 4 µg/mL
Levofloxacin MIC fold difference ([1]; strain AR-0239): 16
Levofloxacin MIC ([1]; strain AR-0239): 4 µg/mL
Levofloxacin MIC fold difference ([1]; strain AR-0240): 16
Levofloxacin MIC ([1]; strain AR-0240): 8 µg/mL
Levofloxacin MIC fold difference ([1]; strain AR-0241): 8
Levofloxacin MIC ([1]; strain AR-0241): 8 µg/mL
Levofloxacin MIC fold difference ([1]; strain AR-0242): 16
Levofloxacin MIC ([1]; strain AR-0242): 1 µg/mL
Levofloxacin MIC fold difference ([1]; strain AR-0244): 64
Levofloxacin MIC ([1]; strain AR-0244): 2 µg/mL
Levofloxacin MIC fold difference ([1]; strain AR-0245): 8
Levofloxacin MIC ([1]; strain AR-0245): 16 µg/mL
Levofloxacin MIC fold difference ([1]; strain AR-0246): 8
Levofloxacin MIC ([1]; strain AR-0246): 8 µg/mL
Levofloxacin MIC fold difference ([1]; strain AR-0247): 256
Levofloxacin MIC ([1]; strain AR-0247): ≤ 0.008 µg/mL
Levofloxacin MIC fold difference ([1]; strain AR-0248): 32
Levofloxacin MIC ([1]; strain AR-0248): 0.5 µg/mL
Levofloxacin MIC fold difference ([1]; strain AR-0249): 32
Levofloxacin MIC ([1]; strain AR-0249): 2 µg/mL
Levofloxacin MIC fold difference ([1]; strain AR-0250): 8
Levofloxacin MIC ([1]; strain AR-0250): 8 µg/mL
Levofloxacin MIC fold difference ([1]; strain AR-0252): 64
Levofloxacin MIC ([1]; strain AR-0252): 0.5 µg/mL
Levofloxacin MIC fold difference ([1]; strain AR-0253): 64
Levofloxacin MIC ([1]; strain AR-0253): 0.031 µg/mL
Levofloxacin MIC fold difference ([1]; strain AR-0256): 16
Levofloxacin MIC ([1]; strain AR-0256): 0.031 µg/mL
Levofloxacin MIC fold difference ([1]; strain AR-0258): 8
Levofloxacin MIC ([1]; strain AR-0258): 0.062 µg/mL
Levofloxacin MIC fold difference ([1]; strain AR-0259): 8
Levofloxacin MIC ([1]; strain AR-0259): 0.062 µg/mL
Levofloxacin MIC fold difference ([1]; strain AR-0260): 8
Levofloxacin MIC ([1]; strain AR-0260): 8 µg/mL
Levofloxacin MIC fold difference ([1]; strain AR-0261): 32
Levofloxacin MIC ([1]; strain AR-0261): 0.25 µg/mL
Levofloxacin MIC fold difference ([1]; strain AR-0262): 64
Levofloxacin MIC ([1]; strain AR-0262): 0.063 µg/mL
Levofloxacin MIC fold difference ([1]; strain AR-0264): 32
Levofloxacin MIC ([1]; strain AR-0264): 1 µg/mL
Levofloxacin MIC fold difference ([1]; strain AR-0265): 16
Levofloxacin MIC ([1]; strain AR-0265): 4 µg/mL
Levofloxacin MIC fold difference ([1]; strain AR-0266): 16
Levofloxacin MIC ([1]; strain AR-0266): 2 µg/mL
Levofloxacin MIC fold difference ([1]; strain AR-0267): 64
Levofloxacin MIC ([1]; strain AR-0267): 0.5 µg/mL
Levofloxacin MIC fold difference ([1]; strain AR-0269): 16
Levofloxacin MIC ([1]; strain AR-0269): 2 µg/mL
Levofloxacin MIC fold difference ([1]; strain AR-0270): 64
Levofloxacin MIC ([1]; strain AR-0270): 0.5 µg/mL
Levofloxacin MIC fold difference ([1]; strain AR-0271): 8
Levofloxacin MIC ([1]; strain AR-0271): 4 µg/mL
Levofloxacin MIC fold difference ([1]; strain AR-0272): 8
Levofloxacin MIC ([1]; strain AR-0272): 2 µg/mL
MIC (P. aeruginosa ATCC 27853 [2]; Pseudomonas aeruginosa, ATCC27853): 50 µg/mL
lowest active concentration for TXA09155 (P. aeruginosa ATCC 27853 [2]; antibiotic potentiation): 6.25 µg/mL
lowest concentration that potentiated levofloxacin eight-fold [3]: 3.13 µg/mL
fold reduction of the FoR to levofloxacin (P. aeruginosa ATCC 27853 [4]): more than 149 fold
FoR, resistance to TXA09155 alone (1×-MIC) (P. aeruginosa ATCC 27853 [4]; 50 μg/mL): 1.9 × 10^−3
FoR, resistance to TXA09155 alone (4×-MIC) (P. aeruginosa ATCC 27853 [4]; 200 μg/mL): 1.40 × 10^−6
